Experimental data from patent publication US8975384B2, “Tag peptide and use thereof” (Osaka University, priority 2008, dated 2015).
Like-named read-outs stand apart in the source and are kept apart here.

Columns and labels:
[1] = test system: P20.1 antibody; test: Epitope analysis by ELISA with P4-Fn proteins and Ala mutants; assay type: binding, mouse; settings: coated Fn fusion protein 10 μg/mL, P20.1 antibody 2 to 5 μg/mL, absorbance 405 nm
Protocol: The minimum peptide sequence required for recognition by the P20.1 antibody was identified by the ELISA method using various kinds of P4-Fn proteins prepared in the above (2-1). The protocol is as follows.
(1) A P4-Fn (or a mutant thereof) solution diluted at 10 μg/mL was added at 50 μL/well to 96-well plates, which were then allowed to stand (4° C., 16 hours).
(2) The supernatant of each well was removed with an aspirator, a 1% BSA solution in Tris-buffered saline (TBS; 20 mM Tris-HCl, 150 mM NaCl, pH 7.5) was added at 200 μL/well, and the plates were allowed to stand at room temperature for 1 hour.
(3) A P20.1 antibody solution (2 to 5 μg/mL) was added at 50 μL/well and the plates were allowed to stand at room temperature for 1 hour.
(4) Each well was washed with 200 μL of TBS 3 times.
(5) A peroxidase-labeled anti-mouse IgG (1/1000 dilution) was added at 50 μL/well, and the plates were allowed to stand at room temperature for 30 minutes.
(6) Each well was washed with 200 μL of TBS 4 times.
(7) A peroxidase chromogenic substrate (ABTS) was added at 100 μL/well, the plates were allowed to stand at room temperature for 5 to 10 minute, and then the absorbance of the solution in each well was measured at 405 nm.
The ELISA results of 5 different tag peptide fusion proteins having the P4 peptide attached to the N terminus of the Fn are shown in FIG. 5. […]

[2] = test system: P20.1 antibody; test: Sandwich ELISA, P20.1 antibody as detection antibody; assay type: binding, mouse; settings: diluted cell supernatant, biotinylated P20.1 antibody 5 μg/mL, absorbance 405 nm
Protocol: The anti-hGH monoclonal antibody HGH-B was immobilized to microtiter plates. After blocking, the supernatant of cells transiently expressing the hGH-γC-P4 fusion protein having P4×1, P4×3 or P4×5 linked thereto (see FIG. 3, FIG. 4 and SEQ ID NO: 15) was added at various dilution ratios to wells of the plates, which were then allowed to stand at 4° C. overnight. In this way, such a fusion protein was captured by the antibody on the plates. After washing, a biotinylated P20.1 antibody (5 μg/mL) was allowed to react with the fusion protein at room temperature for 30 minutes. After 3-time washing, peroxidase-labeled streptavidin (Zymed) was added to the plates, which were then allowed to stand at room temperature for additional 15 minutes. After addition of peroxidase substrate (ABTS), the absorbance at 405 nm was measured.

[3] = test system: P20.1 antibody-Sepharose; test: Pull-down efficiency with P20.1 antibody-immobilized beads; assay type: binding, mouse; settings: pull-down by P20.1 antibody-Sepharose
Protocol: Three different hGH-γC-P4 fusion proteins, which have P4×1, P4×3 or P4×5, were separately expressed in HEK293T cells. The fusion protein in the separate cell culture supernatant was quantified by the sandwich ELISA (which adopts a system of hGH antibody-mediated capture+anti-BAS serum-mediated detection, and is not dependent on the responsiveness to the P20.1 antibody) (before pull-down). Aside from this, to 1 mL of the cell culture supernatant, 20 μL of the P20.1 antibody-Sepharose (bead form) was added, and then the mixture was allowed to react at 4° C. for 1 hour. After the beads were precipitated by centrifugation, the fusion protein in the supernatant was quantified by the sandwich ELISA (which adopts a system of hGH antibody-mediated capture+anti-BAS serum-mediated detection, and is not dependent on the responsiveness to the P20.1 antibody) (after pull-down). The fusion protein purified with Ni-NTA agarose was used as a standard, and based on the standard curve, the fusion protein concentrations before and after pull-down by the P20.1 antibody were determined. As is clear from Table 4, 3 to 5 repeats of the P4 sequence achieves the binding efficiency of about 80%.

[4] = test system: P20.1 antibody; test: Kinetics analysis by surface plasmon resonance, P4 sequence repeats over P20.1 antibody-immobilized sensor chip; assay type: binding, mouse; settings: hGH-γC fusion proteins, flow rate 20 μL/min, Biacore X-100
Protocol: For improvement of the efficacious affinity for the P20.1 antibody, tag peptide fusion proteins having a repeated sequence, specifically 1, 3 or 5 repeats of the P4 sequence (referred to as P4×1, P4×3 or P4×5, in the above order) were prepared (see the above (2-2)). These proteins were allowed to separately pass at a flow rate of 20 μL/min over the P20.1 antibody-immobilized sensor chip, and kinetics analysis was conducted using Biacore X-100 (GE Healthcare).

[5] = test system: P4×3-tagged hGH fusion protein bound to P20.1 antibody-Sepharose; test: Elution of P4×3-tagged hGH fusion protein from P20.1 antibody-Sepharose; settings: in TBS, room temperature, 10 minutes
Protocol: With 8 mL of the culture supernatant of cells expressing the P4×3-tagged hGH fusion protein, 100 μL of the P20.1 antibody-Sepharose (0.2 mg in terms of the P20.1 antibody, bead form) was mixed, and then the mixture was allowed to react at 4° C. for 3 hours. After the reaction, the beads were washed with 3 mL of Tris-buffered saline (TBS; 20 mM Tris-HCl, 150 mM NaCl, pH 7.5), and 300 μL of an eluent as shown below was added to and mixed with the beads at room temperature for 10 minutes. The effluent obtained by each eluent was concentrated and then was subjected to SDS gel electrophoresis at an equal amount. For comparison, affinity binding was also performed using Ni-NTA beads on the same conditions as above, and the effluent obtained by use of imidazole as an eluent was analyzed simultaneously.
The above-mentioned numbers correspond to the lane numbers in FIG. 23 (a). “Ni” indicates the effluent from Ni-NTA beads. As shown in FIG. 23 (a), the tagged fusion protein which was bound to the P20.1 antibody-Sepharose was not only eluted with 0.1 mg/mL or more of the P4(C8) peptide, but also completely eluted by combined use of propylene glycol and sodium chloride. […]

[6] = test system: P4(20)-Fn protein-P20.1 antibody binding; test: Competitive dissociation by peptide (ELISA); settings: peptide concentration of 0.1 mg/mL, 30 minutes
Protocol: For examination on whether an excess of free peptides can disrupt protein-P20.1 antibody binding, at the final washing step of the (3-1) ELISA experiment using the P4(20)-Fn protein, buffer solutions containing different concentrations of the P4(C8) peptide (8-residue peptide PRGYPGQV (SEQ ID NO: 20) synthesized by the Fmoc method) were added to wells and the plates were allowed to stand for 30 minutes.

[7] = molecular target: T1, P4(20)-Fn (Homo sapiens, UniProt P02751); test: Surface plasmon resonance analysis (Biacore): binding affinity of P20.1 antibody for P4 peptide sequence
T1 construct: the 9th to 10th region of the Fn3 domain of human fibronectin (185 residues); made in house; host or cells: pET11c vector
Protocol: For examination on the binding affinity of the P20.1 antibody for the P4 peptide sequence, the surface plasmon resonance analysis using Biacore was performed. After the P4(20)-Fn (see FIG. 1) purified in the (2-1) was biotinylated and then captured by a streptavidin-immobilized sensor chip, a purified P20.1 antibody was allowed to flow over the prepared sensor chip at various concentrations. […] Similarly, a commercially available Flag ([…] (SEQ ID NO: 19)) and corresponding antibody M2 were used for examination on the affinity of M2 for Flag-tagged Fn (Flag-Fn).

[8] = Phage display random screening of the peptide sequence recognizable by the P20.1 antibody; assay type: binding; settings: panning with P20.1 antibody-immobilized magnetic beads
From the text: For extensive search for the peptide sequence recognizable by the P20.1 antibody, the phage display method was employed. The phagemid shown in FIG. 11 was constructed for insertion of the randomized 7-amino-acid peptide library (all of them have Tyr2 and Gln5 in common) into the N terminus of the gIII coat protein of M13 phage. As a result, the phage library of 10^7 members was obtained.
Through panning by use of P20.1 antibody-immobilized magnetic beads, a number of clones bound to the beads were obtained. The sequence of the variable region in these different clones was decoded by DNA sequencing, and the sequence pattern as shown in FIG. 12 was obtained. […] Namely, it can be said that the P20.1 antibody generally has a high affinity for the following peptide sequence: X1-Tyr2-Pro3-Gly4-Gln5-X6: SEQ ID NO:21 (wherein X1 is any amino acid residue; Pro3 may be an amino acid having a small side chain, such as S, V, C, A, T, E, G and D; and X6 is any hydrophobic amino acid). X-Ray Crystallography of the P20.1 Antibody Fab Fragment-Peptide Complex (5-1) Amino Acid Sequencing of the P20.1 Antibody Variable Region DNA Cloning from Hybridoma

[9] = P20.1 antibody flowed over biotinylated P4(20)-Fn captured on streptavidin sensor chip

GGDDSTPSILPAPRGYPGQVC [P4 peptide]
recognition by / responsiveness to the P20.1 antibody [1]: can be recognized by the P20.1 antibody

GYPGQV [P4 sequence]
recognition by / responsiveness to the P20.1 antibody [1]: enough for recognition by the P20.1 antibody

P4 × 3: hGH/fibrinogen γC fusion protein tagged with 3 repeats of the P4 sequence GYPGQV
signals in sandwich ELISA [2]: dose-dependent signals were observed in 30-fold or less diluted supernatant | Binding efficiency [3]: 78%

P4 × 5: hGH/fibrinogen γC fusion protein tagged with 5 repeats of the P4 sequence GYPGQV
signals in sandwich ELISA [2]: dose-dependent signals were observed in 30-fold or less diluted supernatant | Binding efficiency [3]: 80% | affinity / binding capacity for the P20.1 antibody [4]: further increased binding capacity

P4: hGH/fibrinogen γC fusion protein tagged with 1 repeat of the P4 sequence GYPGQV
signals in sandwich ELISA [2]: only weak signals were detected in 3-fold or less diluted supernatant | Binding efficiency [3]: 14% | affinity / binding capacity for the P20.1 antibody [4]: extremely weak affinity

PRGYPGQV [P4(C8) peptide]
peptide concentration that eluted the tagged fusion protein [5]: ≥ 0.1 mg/mL | dissociation of protein-P20.1 antibody binding by free peptide [6]: almost complete dissociation

B1: P20.1 Ab: monoclonal antibody produced by mouse-mouse hybridoma P20.1 (FERM BP-11061), IgG1 isotype, λ light chains, against N-terminal 20 residues of human PAR4 (antibody, V domains shown)
VH: QIQLVQSGPEVQKPGETVRISCKASGYTFTTAGMQWVQKMPGKSLKWIGWINTRSGVPKYAEDFKGRFAFSLETSASIAYLHINNLKNEDTATYFCAREGPGFVYWGQGTLVTVSA
VL: QTVVTQESALTTSPGETVTLTCRSSTGVVTTSNYANWVQEKPDHLFTGLIVGTNNRVPGVPPRFSGSLIGDKAALTITGAQTEDEAIYFCALWYSNHWVFGGGTKLTVL
Ka [7, 9]: 365000 M⁻¹ s⁻¹ | Kd(1/s) [7, 9]: 0.00123 s⁻¹ | Kd ([7]; P20.1 antibody flowed over biotinylated P4(20)-Fn captured on streptavidin sensor chip, read-out: KD): 3.38 nM | Kd ([7]; affinity for the P4(20)-Fn, read-out: apparent dissociation equilibrium constant (Kd)): ~3.4 nM | peptide sequence required for recognition [8]: requires the presence of tyrosine, glycine and glutamine at position 2, 4 and 5
